Results published in ChEMBL document CHEMBL3244058, “Dibenz[b,e]oxepinalkanoic acids as nonsteroidal antiinflammatory agents. 2. Dihydro-10-oxofuro-and -thieno[3,2-c][1]benzoxepin-8-acetic acids” (J Med Chem, 1977).

What was measured:
Rattus norvegicus [1] = experiment: Antiinflammatory activity in po dosed rat assessed as inhibition of carrageenan-induced paw edema; assay type: functional
[2] = Gastrointestinal toxicity in po dosed rat assessed as induction of gastric irritation; assay type: organism-based, Stomach; conditions: in vivo, read-out: ID50 (the source's name)
[3] = Therapeutic index, ratio of ID50 for po dosed rat to ED50 for po dosed rat; assay type: organism-based; conditions: in vivo, read-out: TI
Rattus norvegicus [4] = experiment: Ratio of indomethacin ED50 to compound ED50 for po dosed rat assessed as inhibition of carrageenan-induced paw edema; assay type: functional

| Compound | ED50 (Rattus norvegicus [1]) | TD50 [2] | selectivity ratio [3] | Ratio ED50 (Rattus norvegicus [4]) |
| --- | --- | --- | --- | --- |
| O=C(O)Cc1ccc2c(c1)C(=O)c1occc1CO2 | 33.3 mg/kg |  |  |  |
| O=C(O)Cc1ccc2c(c1)C(=O)c1sccc1CO2 | 3.37 mg/kg | 33.7 mg/kg | 10 | 1.3 |
| COc1ccc2c(c1)c(CC(=O)O)c(C)n2C(=O)c1ccc(Cl)cc1 [INDOMETHACIN] | 4.35 mg/kg |  | 0.4 |  |
| O=C(O)Cc1ccc2c(c1)C(=O)c1ccccc1CO2 [ISOXEPAC] | 6.36 mg/kg |  | 13 |  |
